# Laboratory results from PubChem BioAssay (NCI).
#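 The compound was tested at five concentrations on cells cultured in 96-well plates, with a 48-hour exposure period. Here, GI50 denotes the concentration required for 50% inhibition of growth. TGI: concentration producing complete growth inhibition.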
# Columns and labels:
# Assay in all cases: NCI tumour cell line growth inhibition, 48 h
# NCI-H226 lung = tested on: NCI-H226 lung
# MDA-MB-435 = tested on: MDA-MB-435
# SK-MEL-2 melanoma = tested on: SK-MEL-2 melanoma
# SK-OV-3 ovarian = tested on: SK-OV-3 ovarian
# HCC-2998 colon = tested on: HCC-2998 colon
# T-47D breast = tested on: T-47D breast
# COLO 205 colon = tested on: COLO 205 colon
# HOP-92 NSCLC = tested on: HOP-92 NSCLC
# SNB-19 CNS = tested on: SNB-19 CNS
# HS 578T breast = tested on: HS 578T breast
Structure (SMILES),GI50 (NCI-H226 lung),TGI (NCI-H226 lung),GI50 (MDA-MB-435),TGI (MDA-MB-435),GI50 (SK-MEL-2 melanoma),TGI (SK-MEL-2 melanoma),GI50 (SK-OV-3 ovarian),TGI (SK-OV-3 ovarian),GI50 (HCC-2998 colon),TGI (HCC-2998 colon),GI50 (T-47D breast),TGI (T-47D breast),GI50 (COLO 205 colon),TGI (COLO 205 colon),GI50 (HOP-92 NSCLC),TGI (HOP-92 NSCLC),GI50 (SNB-19 CNS),TGI (SNB-19 CNS),GI50 (HS 578T breast),TGI (HS 578T breast)
COc1cc2c(=O)n(CCN(C)C)c3c4cc5c(cc4ccc3c2cc1OC)OCO5,0.512 µM,1.27 µM,0.329 µM,1.29 µM,0.876 µM,1.94 µM,0.275 µM,1.87 µM,0.53 µM,1.36 µM,0.111 µM,0.486 µM,0.169 µM,0.922 µM,0.505 µM,2.6 µM,0.198 µM,8.41 µM,0.973 µM,> 13.1 µM
CCOC(=O)/C=C/C(=O)[C@H](CC(C)C)NC(=O)[C@H](Cc1ccccc1)NC(=O)OCc1ccccc1,26.4 µM,60.4 µM,6.58 µM,20.1 µM,13.8 µM,27.1 µM,18.6 µM,32.6 µM,15.6 µM,30.1 µM,2.1 µM,4.66 µM,2.46 µM,5.83 µM,2.56 µM,6.99 µM,12.6 µM,28.1 µM,10.9 µM,67.9 µM
COc1cc(/C=C/c2cc(/C=C/c3ccc(O)c(OC)c3)n(C(=O)Nc3ccc(Cl)cc3)n2)ccc1O,2.16 µM,7.92 µM,0.149 µM,0.392 µM,0.403 µM,2.01 µM,0.426 µM,1.8 µM,1.68 µM,6.01 µM,1.25 µM,4.17 µM,1.95 µM,3.43 µM,2.14 µM,7.04 µM,0.664 µM,11.1 µM,0.732 µM,5.63 µM
Cc1cnc(Nc2ccc(N3CCN(C)CC3)cc2)nc1Nc1ccc(Cl)c(NS(=O)(=O)C(C)(C)C)c1,0.23 µM,2.09 µM,0.17 µM,10.7 µM,0.31 µM,3.76 µM,0.0972 µM,0.808 µM,0.383 µM,1.84 µM,0.349 µM,15.5 µM,0.094 µM,0.543 µM,0.17 µM,1.59 µM,1.34 µM,18.5 µM,0.128 µM,1.4 µM
